In ChEMBL document CHEMBL1201862, “PubChem BioAssay data set” (2004):
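Dose response: 5 concentrations. Exposure: 48 h. Format: 96-well plates. Endpoint: linear interpolation; highest concentration if not reached. At the GI50, growth is halved.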 The source made the active and inactive calls. Rule as the data show it: active = GI50 up to about 1.1 µM and inactive = higher.

Key:
Test in all cases: NCI anticancer screen, dose series, 48 h
K562 = tested on: K562
OVCAR-8 = tested on: OVCAR-8
NCI-H226 = tested on: NCI-H226
OVCAR-4 = tested on: OVCAR-4
OVCAR-5 = tested on: OVCAR-5
COLO 205 = tested on: COLO 205
UACC-62 = tested on: UACC-62
SF-268 = tested on: SF-268
KM-20L2 = tested on: KM-20L2
A498 = tested on: A498
LOX IMVI = tested on: LOX IMVI
A549 = tested on: A549
Malme-3M = tested on: Malme-3M
MOLT-4 = tested on: MOLT-4
NCI-H23 = tested on: NCI-H23
ACHN = tested on: ACHN
HOP-92 = tested on: HOP-92
SNB-19 = tested on: SNB-19
HCT-116 = tested on: HCT-116
KM12 = tested on: KM12
TK-10 = tested on: TK-10
LXFL 529 = tested on: LXFL 529
SN12C = tested on: SN12C
CCRF-CEM = tested on: CCRF-CEM
HOP-18 = tested on: HOP-18
DMS-114 = tested on: DMS-114
HT-29 = tested on: HT-29
UACC-257 = tested on: UACC-257
HCC 2998 = tested on: HCC 2998
UO-31 = tested on: UO-31
HOP-62 = tested on: HOP-62
RPMI-8226 = tested on: RPMI-8226
SNB-78 = tested on: SNB-78
HL-60 = tested on: HL-60
SF-295 = tested on: SF-295
RXF 393 = tested on: RXF 393
EKVX = tested on: EKVX
NCI-H522 = tested on: NCI-H522
DMS-273 = tested on: DMS-273
HCT-15 = tested on: HCT-15
M14 = tested on: M14
SNB-75 = tested on: SNB-75
SK-MEL-28 = tested on: SK-MEL-28
NCI-H460 = tested on: NCI-H460
SK-MEL-5 = tested on: SK-MEL-5
CAKI-1 = tested on: CAKI-1
SW-620 = tested on: SW-620
SK-MEL-2 = tested on: SK-MEL-2
U-251 = tested on: U-251
786-0 = tested on: 786-0
SK-OV-3 = tested on: SK-OV-3
IGROV-1 = tested on: IGROV-1
OVCAR-3 = tested on: OVCAR-3
DLD-1 = tested on: DLD-1
M19-MEL = tested on: M19-MEL
SR = tested on: SR
SF-539 = tested on: SF-539

## CCOC(=O)/C=C1/Oc2ccccc2C1(C)O (stereo not given)
K562
  GI50: > 100 µM (inactive)
OVCAR-8
  GI50: > 100 µM (inactive)
NCI-H226
  GI50: > 100 µM (inactive)
OVCAR-4
  GI50: > 100 µM (inactive)
OVCAR-5
  GI50: > 100 µM (inactive)
COLO 205
  GI50: > 100 µM (inactive)
UACC-62
  GI50: > 100 µM (inactive)
SF-268
  GI50: > 100 µM (inactive)
KM-20L2
  GI50: > 100 µM (inactive)
A498
  GI50: > 100 µM (inactive)
LOX IMVI
  GI50: > 100 µM (inactive)
A549
  GI50: > 100 µM (inactive)
Malme-3M
  GI50: > 100 µM (inactive)
MOLT-4
  GI50: > 100 µM (inactive)
NCI-H23
  GI50: > 100 µM (inactive)
ACHN
  GI50: > 100 µM (inactive)
HOP-92
  GI50: > 100 µM (inactive)
SNB-19
  GI50: > 100 µM (inactive)
HCT-116
  GI50: > 100 µM (inactive)
KM12
  GI50: > 100 µM (inactive)
TK-10
  GI50: > 100 µM (inactive)
LXFL 529
  GI50: > 100 µM (inactive)
SN12C
  GI50: > 100 µM (inactive)
CCRF-CEM
  GI50: > 100 µM (inactive)
HOP-18
  GI50: > 100 µM (inactive)
DMS-114
  GI50: > 100 µM (inactive)
HT-29
  GI50: > 100 µM (inactive)
UACC-257
  GI50: > 100 µM (inactive)
HCC 2998
  GI50: > 100 µM (inactive)
UO-31
  GI50: > 100 µM (inactive)
HOP-62
  GI50: > 100 µM (inactive)
RPMI-8226
  GI50: 84.5 µM (inactive)
SNB-78
  GI50: > 100 µM (inactive)
HL-60
  GI50: > 100 µM (inactive)
SF-295
  GI50: > 100 µM (inactive)
RXF 393
  GI50: 68.7 µM (inactive)
EKVX
  GI50: > 100 µM (inactive)
NCI-H522
  GI50: > 100 µM (inactive)
DMS-273
  GI50: > 100 µM (inactive)
HCT-15
  GI50: > 100 µM
M14
  GI50: > 100 µM (inactive)
SNB-75
  GI50: > 100 µM (inactive)
SK-MEL-28
  GI50: > 100 µM (inactive)
NCI-H460
  GI50: > 100 µM (inactive)
SK-MEL-5
  GI50: > 100 µM (inactive)
CAKI-1
  GI50: > 100 µM (inactive)
SW-620
  GI50: > 100 µM (inactive)
SK-MEL-2
  GI50: > 100 µM (inactive)
U-251
  GI50: > 100 µM (inactive)
786-0
  GI50: > 100 µM (inactive)
SK-OV-3
  GI50: > 100 µM (inactive)
IGROV-1
  GI50: > 100 µM (inactive)
OVCAR-3
  GI50: > 100 µM (inactive)
DLD-1
  GI50: > 100 µM (inactive)
M19-MEL
  GI50: > 100 µM (inactive)

## Cc1c(Cl)ccc2c1NC(=O)C2(O)C1Cc2ccccc2C1=O (stereo not given)
K562
  GI50: 62.1 µM (inactive)
OVCAR-8
  GI50: 11.2 µM (inactive)
NCI-H226
  GI50: > 100 µM (inactive)
OVCAR-4
  GI50: 86.5 µM (inactive)
SR
  GI50: 27.9 µM (inactive)
OVCAR-5
  GI50: > 100 µM (inactive)
COLO 205
  GI50: > 100 µM (inactive)
UACC-62
  GI50: 72.6 µM (inactive)
SF-268
  GI50: > 100 µM (inactive)
KM-20L2
  GI50: > 100 µM (inactive)
A498
  GI50: > 100 µM (inactive)
LOX IMVI
  GI50: > 100 µM (inactive)
A549
  GI50: > 100 µM (inactive)
Malme-3M
  GI50: > 100 µM (inactive)
MOLT-4
  GI50: 25.2 µM (inactive)
NCI-H23
  GI50: > 100 µM (inactive)
ACHN
  GI50: > 100 µM (inactive)
HOP-92
  GI50: > 100 µM (inactive)
SNB-19
  GI50: > 100 µM (inactive)
HCT-116
  GI50: 62.7 µM (inactive)
KM12
  GI50: > 100 µM (inactive)
TK-10
  GI50: > 100 µM (inactive)
LXFL 529
  GI50: 41.1 µM (inactive)
SN12C
  GI50: > 100 µM (inactive)
CCRF-CEM
  GI50: 26.1 µM (inactive)
HOP-18
  GI50: > 100 µM (inactive)
DMS-114
  GI50: 53.6 µM (inactive)
HT-29
  GI50: > 100 µM (inactive)
UACC-257
  GI50: > 100 µM (inactive)
HCC 2998
  GI50: 32.7 µM (inactive)
UO-31
  GI50: 92.9 µM (inactive)
HOP-62
  GI50: > 100 µM (inactive)
RPMI-8226
  GI50: 42.5 µM (inactive)
SNB-78
  GI50: > 100 µM (inactive)
HL-60
  GI50: 21.2 µM (inactive)
SF-295
  GI50: > 100 µM (inactive)
RXF 393
  GI50: 57.9 µM (inactive)
EKVX
  GI50: > 100 µM (inactive)
NCI-H522
  GI50: > 100 µM (inactive)
HCT-15
  GI50: > 100 µM
M14
  GI50: > 100 µM (inactive)
SK-MEL-28
  GI50: > 100 µM (inactive)
NCI-H460
  GI50: > 100 µM (inactive)
SK-MEL-5
  GI50: > 100 µM (inactive)
CAKI-1
  GI50: > 100 µM (inactive)
SW-620
  GI50: > 100 µM (inactive)
SK-MEL-2
  GI50: > 100 µM (inactive)
U-251
  GI50: 27.7 µM (inactive)
786-0
  GI50: 41.3 µM (inactive)
SF-539
  GI50: > 100 µM (inactive)
SK-OV-3
  GI50: > 100 µM (inactive)
IGROV-1
  GI50: > 100 µM (inactive)
OVCAR-3
  GI50: > 100 µM (inactive)
DLD-1
  GI50: > 100 µM (inactive)
M19-MEL
  GI50: > 100 µM (inactive)
